{"source": "patent US5110935A", "about": "“New compounds which are active against the tissue forms of malaria and method of preparation” (Ire-Celltarg, S.A., priority 1988, dated 1992)", "key": {"[1]": {"test_system": "human erythrocytes", "conditions": "not told", "procedure": "Fresh human blood (A+) on CPDA is washed twice in RPMI medium containing 20 mM glucose at pH 7.4, and then resuspended in the same medium at 37° C. to obtain a 20% suspension of red cells (2×10^9 erythrocytes/ml). To 1 ml of this suspension, 1 ml of a solution of PQ or derivatives at a concentration of 0.250 mM in the same medium at 37° C. is added.\nAfter different incubation times at 37° C., 0.5 ml of sample is withdrawn and then transferred to an Eppendorf tube containing 0.4 ml of silicone oil (Merck, density 1.06 g/ml).\nAfter centrifugation for 30 seconds at 12,000 g, the supernatant and the silicone oil are removed, while the cells in the pellet are lyzed by adding 0.5 ml of water. The quinoline compound present in combination with the cell lysate is then extracted by precipitation of the cell proteins with acetonitrile (0.5 ml) and thereafter analyzed by HPLC under the standard conditions.\nThe intracellular concentration of quinoline derivative is obtained by subtracting the concentration of compound present in the extracellular medium from the total concentration in the cell lysate. The contaminating extracellular volume is measured using tritiated inulin."}, "[2]": {"test_system": "female Swiss OF1 mice", "experiment": "Acute toxicity in mice after a single i.v. administration", "assay_type": "in vivo", "method": "(§1) The acute toxicity in terms of a single administered dose is determined on female Swiss OF1 mice weighing 22 to 25 g. A series of dilutions of each compound is injected intravenously into groups of 10 mice (0.1 ml per 10 g of weight).\n(§2) The lethal dose for 50% of mice (LD50) is determined by linear regression of the logits of the percentage of surviving animals as a function of the logarithm of the dose injected (in mg PQ diphosphate equivalent/kg) (Logit Weighted Transformation, Berkson J., 1953; J. Am. Stat. Assoc. 48, 565-599).\n(§3) ^a : The products are administered i.v. to groups of 10 female Swiss\n(§4) ^b : Maximum tolerated dose (MTD), defined as the highest dose\n(§5) The acute toxicity in terms of a single administered dose is determined under the same conditions and according the protocol of Example 3."}, "[3]": {"experiment": "Acute toxicity in mice after a single i.v. administration", "assay_type": "in vivo", "conditions": "mouse, in vivo, iv, single i.v., mg PQ diphosphate equivalent/kg", "method": "as §1, §2, §3, §4, §5"}, "[4]": {"experiment": "Hydrolysis in the presence of lysosomal enzymes", "assay_type": "in vitro ADME, rat", "conditions": "rat", "method": "(§6) The compounds, at a final concentration of 15 μg/ml, are incubated in 50 mM acetate buffer, pH 4.5, at 37° C. in the presence of 5 mM cysteine and a lysosomal enzyme fraction (0.15 mg protein/ml) purified from rat liver.\n(§7) The purified lysosomal fraction is prepared according to the method described by Trouet (1974, Meth. Enzymol., 31, 323-334).\n(§8) At intervals of time, corresponding samples are taken from the incubation. The enzyme reaction is stopped by adding 10 μl of 10M HCl per ml of sample. A volume of 20 μl is withdrawn and analyzed directly by HPLC under the standard conditions.\n(§9) ^a : The compounds are incubated at pH 4.5 in the presence of\n(§10) lysosomal enzymes (0.15 mg protein/ml) and 5 mM cysteine, and then\n(§11) analyzed by spectrophotometry after HPLC. The initial purity of the\n(§12) ^b : The results represent the relative concentration of primaquine\n(§13) (PQ) and derivatives (PQX) in terms of the incubation time, expressed as\n(§14) percentage of the initial concentration (time 0) after extraction."}, "[5]": {"test_system": "lysosomal enzymes", "experiment": "Hydrolysis in the presence of lysosomal enzymes", "assay_type": "in vitro ADME, rat", "method": "as §6, §7, §8, §9, §10, §11, §12, §13, §14"}, "[6]": {"test_system": "human red cells", "experiment": "Methemoglobin production in human red cells", "assay_type": "cell-based", "conditions": "for Methemoglobin (% of total hemoglobin concentration): 1 hour, 37° C.", "procedure": "(§15) Two important toxic effects of PQ were assessed on the two derivatives: the hemolytic effect and the conversion of hemoglobin to methemoglobin.\n(§16) A+ blood is washed twice in 0.15M phosphatebuffered saline at pH 7.4 containing 20 mM glucose (GPBS), and then resuspended at a concentration of 50% in the same buffer. To this suspension, an equal volume of compound dissolved in GPBS at different concentrations (test), or of GPBS (control) is added. The final hematocrit of the suspension is 25%. After 60 minutes' incubation at 37° C., the concentration of hemoglobin and methemoglobin is determined on the total suspension, and the concentration of hemoglobin present in the supernatant after centrifugation (extracellular hemoglobin) is determined, by the cyanmethemoglobin and benzidine methods (Fairbanks V.F., 1976, in \"Fundamentals of Clinical Chemistry, M.W. Tietz Editors, Saunders\")."}, "[7]": {"experiment": "Stability in the presence of fetal calf serum", "assay_type": "in vitro ADME", "conditions": "37° C.", "method": "The influence of serum on the stability of primaquine (PQ) and its derivatives is determined by incubating these compounds at 37° C. at a concentration of 100 μg/ml in 95% fetal calf serum (FCS, Flow Laboratories) or human serum and phosphate-buffered saline (0.15 M PBSA, pH 7.2) as a control. All the solutions are sterilized by filtration on a Millipore filter (Millex GV) of porosity 0.20 μm.\nAt interval of time, 1-ml samples are withdrawn and the serum proteins are then extracted from them by precipitation with acetonitrile. For this purpose, an identical volume of acetonitrile is added to each sample. After vigorous mixing in a Vortex mixer, the samples are left for 1 hour at 4° C. and protected from light and then centrifuged for 5 minutes at 12,000 g. The supernatants are collected and then analyzed by HPLC (20- to 50-μl aliquot) under the standard conditions.\nThe results for the stability of primaquine and its two derivatives in the presence of fetal calf serum are recorded in Table 1; the results are expressed as a % of the initial concentration (time 0) after extraction.\n^a : The compounds are incubated at 37° C. in the presence of\nfetal calf serum (95% final) and then analyzed by spectrophotometry after\nas §12\n(PQ) and of derivatives (PQX) in terms of the incubation time, expressed\nas a percentage of the initial concentration (time 0) after extraction"}, "[8]": {"experiment": "Hemolytic effect on human red cells", "assay_type": "cell-based", "conditions": "human, red cells, pH 7.4, 1 hour, 37° C., read-out: Hemolysis (% of total hemoglobin concentration)", "procedure": "as §15, §16"}, "[9]": {"test_system": "Plasmodium berghei", "experiment": "Therapeutic index in mice", "assay_type": "in vivo, P. berghei", "conditions": "mice, i.v.", "excerpt": "The therapeutic index is defined as the ratio of the toxicity, expressed as LD50, to the therapeutic activity, expressed as CPD50, in mice.\n^b : The therapeutic index (TI) is the ratio of LD50 to […]"}}}
{"smiles": "COc1cc(NC(C)CCCNC(=O)[C@@H]2CCC(=O)N2)c2ncccc2c1", "note": "(stereo partly drawn) [pGLU-PQ, N-(α-L-pyroglutamyl)primaquine]", "values": [{"measurement": "Time to maximum level in erythrocytes", "setting": "[1]", "result": 60, "unit": "min"}, {"measurement": "Fold less toxic than PQ", "setting": "[2]; mice, i.v.", "result": "at least 5 -fold"}, {"measurement": "LD50", "setting": "[2]; single i.v., mg PQ diphosphate equivalent/kg", "result": "159 (6) mg/kg"}, {"measurement": "Maximum tolerated dose (MTD)", "setting": "[2]; single i.v., mg PQ diphosphate equivalent/kg, weight loss not exceeding 5% during 5 days", "result": "126 (13) mg/kg"}, {"measurement": "LD50", "setting": "[3]", "result": 159, "unit": "mg/kg"}, {"measurement": "MTD", "setting": "[3]; weight loss not exceeding 5% during 5 days, read-out: Maximum tolerated dose (MTD)", "result": 126, "unit": "mg/kg"}, {"measurement": "metabolised at 1 h", "setting": "[4]; liver lysosomal enzyme fraction, pH 4.5, 1 h, read-out: Relative concentration of primaquine (PQ) from derivative", "result": 0, "unit": "%"}, {"measurement": "metabolised at 2 h", "setting": "[4]; liver lysosomal enzyme fraction, pH 4.5, 2 h, read-out: Relative concentration of primaquine (PQ) from derivative", "result": 0, "unit": "%"}, {"measurement": "metabolised at 3 h", "setting": "[4]; liver lysosomal enzyme fraction, pH 4.5, 3 h, read-out: Relative concentration of primaquine (PQ) from derivative", "result": 0, "unit": "%"}, {"measurement": "metabolised at 6 h", "setting": "[4]; liver lysosomal enzyme fraction, pH 4.5, 6 h, read-out: Relative concentration of primaquine (PQ) from derivative", "result": 0, "unit": "%"}, {"measurement": "metabolised at 24 h", "setting": "[4]; liver lysosomal enzyme fraction, pH 4.5, 24 h, read-out: Relative concentration of primaquine (PQ) from derivative", "result": 0, "unit": "%"}, {"measurement": "metabolised at 48 h", "setting": "[4]; liver lysosomal enzyme fraction, pH 4.5, 48 h, read-out: Relative concentration of primaquine (PQ) from derivative", "result": 0, "unit": "%"}, {"measurement": "remaining at 1 h", "setting": "[4]; liver lysosomal enzymes, pH 4.5, 37° C., 1 h, read-out: Relative concentration of compound (% of initial concentration)", "result": 94, "unit": "%"}, {"measurement": "remaining at 2 h", "setting": "[4]; liver lysosomal enzymes, pH 4.5, 37° C., 2 h, read-out: Relative concentration of compound (% of initial concentration)", "result": 97, "unit": "%"}, {"measurement": "remaining at 3 h", "setting": "[4]; liver lysosomal enzymes, pH 4.5, 37° C., 3 h, read-out: Relative concentration of compound (% of initial concentration)", "result": 97, "unit": "%"}, {"measurement": "remaining at 6 h", "setting": "[4]; liver lysosomal enzymes, pH 4.5, 37° C., 6 h, read-out: Relative concentration of compound (% of initial concentration)", "result": 96, "unit": "%"}, {"measurement": "remaining at 24 h", "setting": "[4]; liver lysosomal enzymes, pH 4.5, 37° C., 24 h, read-out: Relative concentration of compound (% of initial concentration)", "result": 76, "unit": "%"}, {"measurement": "remaining at 48 h", "setting": "[4]; liver lysosomal enzymes, pH 4.5, 37° C., 48 h, read-out: Relative concentration of compound (% of initial concentration)", "result": 47, "unit": "%"}, {"measurement": "Onset of gradual decrease in relative concentration", "setting": "[5]", "result": "> 6", "unit": "h"}, {"measurement": "Relative concentration of primaquine (PQ) from derivative", "setting": "[5]; pH 4.5, 0 h", "result": 1, "unit": "%"}, {"measurement": "Relative concentration of compound (% of initial concentration)", "setting": "[5]; pH 4.5, 37° C., 0 h", "result": 99, "unit": "%"}, {"measurement": "Methemoglobin (% of total hemoglobin concentration)", "setting": "[6]; 1 mM", "result": "0.9 (0.1) %"}, {"measurement": "Methemoglobin (% of total hemoglobin concentration)", "setting": "[6]; 2 mM", "result": "2.2 (0.9) %"}, {"measurement": "Methemoglobin (% of total hemoglobin concentration)", "setting": "[6]; 5 mM", "result": "3.9 (0.0) %"}, {"measurement": "Methemoglobin (% of total hemoglobin concentration)", "setting": "[6]; 10 mM", "result": "6.0 (0.2) %"}, {"measurement": "Oxidation of hemoglobin, times less than PQ", "setting": "[6]; same concentration as PQ (10 mM)", "result": 1.5, "unit": "times less"}, {"measurement": "remaining at 1 h", "setting": "[7]; bovine, fetal calf serum 95%, 1 h, read-out: Relative concentration of compound (% of initial concentration)", "result": 100, "unit": "%"}, {"measurement": "metabolised at 1 h", "setting": "[7]; bovine, fetal calf serum 95%, 1 h, read-out: Relative concentration of primaquine (PQ) from derivative", "result": 0, "unit": "%"}, {"measurement": "remaining at 2 h", "setting": "[7]; bovine, fetal calf serum 95%, 2 h, read-out: Relative concentration of compound (% of initial concentration)", "result": 101, "unit": "%"}, {"measurement": "metabolised at 2 h", "setting": "[7]; bovine, fetal calf serum 95%, 2 h, read-out: Relative concentration of primaquine (PQ) from derivative", "result": 0, "unit": "%"}, {"measurement": "remaining at 3 h", "setting": "[7]; bovine, fetal calf serum 95%, 3 h, read-out: Relative concentration of compound (% of initial concentration)", "result": 105, "unit": "%"}, {"measurement": "metabolised at 3 h", "setting": "[7]; bovine, fetal calf serum 95%, 3 h, read-out: Relative concentration of primaquine (PQ) from derivative", "result": 0, "unit": "%"}, {"measurement": "remaining at 6 h", "setting": "[7]; bovine, fetal calf serum 95%, 6 h, read-out: Relative concentration of compound (% of initial concentration)", "result": 103, "unit": "%"}, {"measurement": "metabolised at 6 h", "setting": "[7]; bovine, fetal calf serum 95%, 6 h, read-out: Relative concentration of primaquine (PQ) from derivative", "result": 0, "unit": "%"}, {"measurement": "remaining at 24 h", "setting": "[7]; bovine, fetal calf serum 95%, 24 h, read-out: Relative concentration of compound (% of initial concentration)", "result": 107, "unit": "%"}, {"measurement": "metabolised at 24 h", "setting": "[7]; bovine, fetal calf serum 95%, 24 h, read-out: Relative concentration of primaquine (PQ) from derivative", "result": 0, "unit": "%"}, {"measurement": "remaining at 48 h", "setting": "[7]; bovine, fetal calf serum 95%, 48 h, read-out: Relative concentration of compound (% of initial concentration)", "result": 87, "unit": "%"}, {"measurement": "metabolised at 48 h", "setting": "[7]; bovine, fetal calf serum 95%, 48 h, read-out: Relative concentration of primaquine (PQ) from derivative", "result": 0, "unit": "%"}, {"measurement": "Relative concentration of compound (% of initial concentration)", "setting": "[7]; fetal calf serum 95%, 0 h", "result": 100, "unit": "%"}, {"measurement": "Relative concentration of primaquine (PQ) from derivative", "setting": "[7]; fetal calf serum 95%, 0 h", "result": 0, "unit": "%"}, {"measurement": "Stability in the presence of serum", "setting": "[7]; serum", "result": "undergoes no modification"}, {"measurement": "hemolysis at 1 h, 1000 µM", "setting": "[8]; 1 mM", "result": 0.32, "unit": "%"}, {"measurement": "hemolysis at 1 h, 2000 µM", "setting": "[8]; 2 mM", "result": 0.24, "unit": "%"}, {"measurement": "hemolysis at 1 h, 5000 µM", "setting": "[8]; 5 mM", "result": 0.44, "unit": "%"}, {"measurement": "hemolysis at 1 h, 10000 µM", "setting": "[8]; 10 mM", "result": 2.34, "unit": "%"}, {"measurement": "Therapeutic index, fold higher than that of PQ", "setting": "[9]", "result": "9 -fold"}]}
